Values of other authors, collected in patent US6362169B1 (priority 1998, dated 2002).

Test system: Helicobacter pylori
Details: combination use with a proton pump inhibitor or a bismuth preparation (WO 97/02039)

SMILES: CO[C@H]1/C=C/O[C@@]2(C)Oc3c(C)c(O)c4c(c3C2=O)C2=NC3(CCN(CC(C)C)CC3)NC2=C(NC(=O)/C(C)=C\C=C\[C@H](C)[C@H](O)[C@@H](C)[C@@H](O)[C@@H](C)[C@H](OC(C)=O)[C@@H]1C)C4=O [Rifabutin, rifabutin]
- effect on minimum inhibitory concentration by combination use: synergistic effect
